Test results as given in ChEMBL document CHEMBL3102753, “7-Azaindole-1-carboxamides as a new class of PARP-1 inhibitors” (Bioorg Med Chem, 2014).
pEC50, pIC50: −log10 of the molar value.

What was measured:
[1] = Antiproliferative activity against BRCA2 gene mutated human Capan1 cells after 72 hrs by SRB assay; type: functional, cell-based; conditions: capan-1
HCC1937 = assay: Antiproliferative activity against BRCA1 gene mutated human HCC1937 cells after 72 hrs by SRB assay; type: functional, cell-based
Mus musculus [2] = assay: Toxicity in human MX1 cells harboring BRCA1 deletion and BRCA2 mutant xenografted SCID mouse assessed as mortality at 100 mg/kg, ip administered every 2 days for 2 weeks measured on day 38 relative to control; type: organism-based; set-up: dose 100 mg/kg, route intraperitoneal; conditions: in vivo
Mus musculus [3] = assay: Toxicity in human MX1 cells harboring BRCA1 deletion and BRCA2 mutant xenografted SCID mouse assessed as reduction of body weight at 100 mg/kg, ip administered every 2 days for 2 weeks measured on day 38 relative to control; type: organism-based; set-up: dose 100 mg/kg, route intraperitoneal; scale not given: the % may be the effect or the level left; conditions: in vivo
MX1 [4] = assay: Antitumor activity against human MX1 cells harboring BRCA1 deletion and BRCA2 mutant xenografted in SCID mouse assessed as reduction of tumor volume at 100 mg/kg, ip administered every 2 days for 2 weeks measured on day 38 relative to control; type: functional; set-up: scale not given: the % may be the effect or the level left; conditions: route intraperitoneal
[5] = molecular target: T1, Poly [ADP-ribose] polymerase 1 (Homo sapiens, UniProt P09874); assay: Inhibition of PARP-1 in human HeLa cells assessed as decrease of H2O2-induced PARylation after 3 hrs by fluorescence assay; type: cell-based
T1 sequence (P09874 whole entry): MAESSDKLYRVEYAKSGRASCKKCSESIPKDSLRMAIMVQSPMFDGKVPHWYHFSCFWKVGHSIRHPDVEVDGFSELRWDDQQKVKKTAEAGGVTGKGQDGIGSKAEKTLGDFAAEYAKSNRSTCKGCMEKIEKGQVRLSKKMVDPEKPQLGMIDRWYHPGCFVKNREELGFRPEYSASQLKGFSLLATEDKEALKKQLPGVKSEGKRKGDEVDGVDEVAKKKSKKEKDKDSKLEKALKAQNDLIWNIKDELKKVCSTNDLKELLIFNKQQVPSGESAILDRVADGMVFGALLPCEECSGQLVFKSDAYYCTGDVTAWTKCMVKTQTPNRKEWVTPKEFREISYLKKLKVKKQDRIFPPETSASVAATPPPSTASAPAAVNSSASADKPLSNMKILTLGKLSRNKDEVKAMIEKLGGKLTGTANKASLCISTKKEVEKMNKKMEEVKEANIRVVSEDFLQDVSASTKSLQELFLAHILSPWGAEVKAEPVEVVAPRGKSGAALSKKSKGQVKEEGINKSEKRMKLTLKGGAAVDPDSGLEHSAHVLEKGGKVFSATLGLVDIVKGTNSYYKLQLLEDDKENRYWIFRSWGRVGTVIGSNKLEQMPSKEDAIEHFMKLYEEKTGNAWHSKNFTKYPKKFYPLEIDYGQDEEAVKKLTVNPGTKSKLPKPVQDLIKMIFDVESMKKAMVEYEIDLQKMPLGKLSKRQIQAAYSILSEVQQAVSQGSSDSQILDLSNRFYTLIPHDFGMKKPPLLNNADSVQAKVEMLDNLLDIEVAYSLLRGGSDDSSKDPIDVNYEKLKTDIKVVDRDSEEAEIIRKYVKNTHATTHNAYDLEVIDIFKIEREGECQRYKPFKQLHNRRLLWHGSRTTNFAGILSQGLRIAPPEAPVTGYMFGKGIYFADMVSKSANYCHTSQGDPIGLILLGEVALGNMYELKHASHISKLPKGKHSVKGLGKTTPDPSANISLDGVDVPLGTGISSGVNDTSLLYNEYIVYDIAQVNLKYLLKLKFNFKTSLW

A2780 [6] = assay: Resistant factor, ratio of IC50 for human A2780/DX cells to IC50 for human A2780 cells; type: functional
[7] = Antiproliferative activity against human A2780/DX cells after 72 hrs by SRB assay; type: functional, cell-based
A2780 [8] = assay: Antiproliferative activity against human A2780 cells after 72 hrs by SRB assay; type: functional, cell-based; conditions: A2780, 72 h
[9] = molecular target: T1, Poly [ADP-ribose] polymerase 1; assay: Inhibition of recombinant human GST-fused PARP-1 expressed in Escherichia coli after 30 mins by fluorescence assay
[10] = Antiproliferative activity against BRCA2 gene mutated human Capan1 cells after 72 hrs by cell counting; conditions: CAPAN-1, 72 h
Mus musculus [11] = assay: Toxicity in human MX1 cells harboring BRCA1 deletion and BRCA2 mutant xenografted SCID mouse assessed as mortality at 167 mg/kg, ip administered every 2 days for 2 weeks measured on day 38 relative to control; type: organism-based; set-up: dose 167 mg/kg, route intraperitoneal; conditions: in vivo
Mus musculus [12] = assay: Toxicity in human MX1 cells harboring BRCA1 deletion and BRCA2 mutant xenografted SCID mouse assessed as reduction of body weight at 167 mg/kg, ip administered every 2 days for 2 weeks measured on day 38 relative to control; type: organism-based; set-up: dose 167 mg/kg, route intraperitoneal; scale not given: the % may be the effect or the level left; conditions: in vivo
MX1 [13] = assay: Antitumor activity against human MX1 cells harboring BRCA1 deletion and BRCA2 mutant xenografted in SCID mouse assessed as reduction of tumor volume at 167 mg/kg, ip administered every 2 days for 2 weeks measured on day 38 relative to control; type: functional; set-up: scale not given: the % may be the effect or the level left; conditions: route intraperitoneal
[14] = Homo sapiens, HCC1937, 72 h, read-out: IC50

## C[C@]1(c2nc3c(C(N)=O)cccc3[nH]2)CCCN1 [VELIPARIB]
[1]
  pIC50: 4.40
HCC1937; hcc1937, read-out: IC50
  pIC50: 4.01

## NC(=O)n1ccc2ccc(-c3ccc(CN4CCCCC4)cc3)nc21
Mus musculus [2]
  Activity: Non-toxic
Mus musculus [3]
  Activity: 1%
MX1 [4]
  Activity: 36%
[5]
  pEC50: 6.40
A2780 [6]
  Ratio IC50: 3.9
[7]
  pIC50: 4.95
A2780 [8]
  pIC50: 5.54
HCC1937; [14]
  pIC50: 4.71
[9]
  pIC50: 7.15
[10]
  pIC50: 4.66

## CN(C)Cc1ccc(-c2ccc3ccn(C(N)=O)c3n2)cc1
HCC1937; [14]
  pIC50: 4.87
[9]
  pIC50: 6.20
[10]
  pIC50: 4.71

## NC(=O)n1ccc2ccc(N3CCCC3)nc21
HCC1937; [14]
  pIC50: < 3.70
[9]
  pIC50: 6.66
[10]
  pIC50: 4.08

## NC(=O)n1ccc2ccc(N3CCCCC3)nc21
[9]
  pIC50: 5.52

## NC(=O)n1ccc2ccc(-c3ccccc3F)nc21
[9]
  pIC50: 5.52

## CN(C)c1ccc(-c2ccc3ccn(C(N)=O)c3n2)cc1
HCC1937; [14]
  pIC50: < 3.70
[9]
  pIC50: 6.06
[10]
  pIC50: < 3.70

## NC(=O)n1ccc2ccc(-c3ccc[nH]3)nc21
HCC1937; [14]
  pIC50: 4.21
[9]
  pIC50: 6.03
[10]
  pIC50: 4.06

## NC(=O)n1ccc2ccc(-c3ccc(CN4CCCC4)cc3)nc21
HCC1937; [14]
  pIC50: 4.82
[9]
  pIC50: 6.55
[10]
  pIC50: 4.66

## CN1CCN(Cc2ccc(-c3ccc4ccn(C(N)=O)c4n3)cc2)CC1
HCC1937; [14]
  pIC50: 4.38
[9]
  pIC50: 5.81
[10]
  pIC50: 4.26

## NC(=O)Cn1ccc2ccc(-c3ccc(CN4CCCC4)cc3)nc21
HCC1937; [14]
  pIC50: 3.74
[9]
  pIC50: < 5.30
[10]
  pIC50: 3.74

## CN1CCN(c2ccc3ccn(C(N)=O)c3n2)CC1
HCC1937; [14]
  pIC50: 3.96
[9]
  pIC50: 6.11
[10]
  pIC50: 3.86

## NC(=O)n1ccc2ccc(-c3ccc(C(=O)N4CCCCC4)cc3)nc21
HCC1937; [14]
  pIC50: 4.14
[9]
  pIC50: 5.54
[10]
  pIC50: 4.61

## O=C(c1cc(Cc2n[nH]c(=O)c3ccccc23)ccc1F)N1CCN(C(=O)C2CC2)CC1 [OLAPARIB]
Mus musculus [11]
  Activity: Non-toxic
Mus musculus [12]
  Activity: 0%
MX1 [13]
  Activity: 35%
[7]
  pIC50: 4.38
A2780 [8]
  pIC50: 6.00
HCC1937; Homo sapiens, HCC1937, 72 h
  pIC50: 4.99
[10]
  pIC50: 5.20

## COc1ccc(-c2ccc3ccn(C(N)=O)c3n2)cc1
HCC1937; [14]
  pIC50: < 3.70
[9]
  pIC50: 5.42
[10]
  pIC50: 3.79

## NC(=O)n1ccc2cccnc21
HCC1937; [14]
  pIC50: < 3.70
[9]
  pIC50: 5.60
[10]
  pIC50: < 3.70

## NC(=O)n1ccc2ccc(-c3ccc(-c4ccccc4)cc3)nc21
HCC1937; [14]
  pIC50: < 3.70
[9]
  pIC50: < 5.30
[10]
  pIC50: 4.09

## NC(=O)n1ccc2ccc(-c3ccc(F)cc3)nc21
HCC1937; [14]
  pIC50: < 3.70
[9]
  pIC50: 6.57
[10]
  pIC50: 4.21

## NC(=O)n1ccc2ccc(-c3ccccc3)nc21
HCC1937; [14]
  pIC50: < 3.70
[9]
  pIC50: 6.57
[10]
  pIC50: < 3.70

## NC(=O)n1ccc2ccc(-c3ccc(CN4CCOCC4)cc3)nc21
HCC1937; [14]
  pIC50: 4.76
[9]
  pIC50: 5.68
[10]
  pIC50: 4.80

## NC(=O)n1ccc2ccc(-c3ccc(F)c(C(=O)N4CCN(C(=O)C5CC5)CC4)c3)nc21
[9]
  pIC50: 5.95
